Read-outs that look alike come from different tables or passages of the source.
Columns and labels:
c-Raf-1 = c-Raf-1 (Homo sapiens, UniProt P04049); assay: c-Raf-1 kinase activity biochemical assay (AlphaScreen, biotin-MEK1 phosphorylation)
Summary of the method: (§1)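 Compounds from a 0.1 mM DMSO stock were tested at 8 serially diluted points. Kinase reactions with 100 μM ATP (final) ran 45 min at room temperature, then were stopped with EDTA buffer containing anti-phospho-MEK1/2 antibody plus streptavidin donor and protein A acceptor beads.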

[1] = Relative solubility by turbidity threshold concentration in aqueous buffers (pH 1.5, 4.5, 6.8, 7.4); type: physicochemical; details: for turbidity threshold (L, M, H) 1.4: pH 1.4 [sic] (method: SGF pH 1.5); for turbidity threshold (L, M, H) 4.5: pH 4.5 (SIF); for turbidity threshold (L, M, H) 6.8: pH 6.8 (SIF); for turbidity threshold (L, M, H) 7.4: pH 7.4 (HEPES)
Summary of the method: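 Solubility class (high >250 μM, moderate 31.3–250 μM, low <31.3 μM) comes from the concentration where absorbance reaches a 0.01 threshold, averaged across 490/535/650 nm. Samples were compound dilutions from DMSO stock, 1 μL into 99 μL buffer at pH 1.5, 4.5, 6.8 or 7.4.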

CYP2C19 = CYP2C19 (Homo sapiens (Human), UniProt P33261); assay: CYP enzyme inhibition, fluorescent substrate (CEC)
Summary of the method: (§2)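 First, 100 mM DMSO stocks are diluted into acetonitrile, then twofold through co-factor mix for 10 points. Next, mixtures are preincubated 10 min at 37 °C.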

B-Raf V600E = B-Raf V600E (Homo sapiens (Human), UniProt P15056, V600E); assay: B-Raf V600E kinase activity biochemical assay (AlphaScreen, biotin-MEK1 phosphorylation); details: for IC50: B-Raf V600E; for Biochemical activity ratio V600E/C: ratio of IC50 B-Raf V600E / c-Raf-1
Summary of the method: as §1

CYP1A2 = CYP1A2 (Homo sapiens (Human), UniProt P05177); assay: CYP enzyme inhibition, fluorescent substrate (CEC)
Summary of the method: (§3)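 IC50 derived from loss of fluorescent metabolite across a 10-point 1:1 dilution series. CYP2D6: 1.5 pmol enzyme, 1.5 μM AMMC, 30 min at 37 °C, 409/530 nm; CYP1A2: 0.5 pmol, 5 μM CEC, 15 min, 409/460 nm. Compounds pre-incubated 10 min in NADPH-regenerating mix.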

CYP3A4(BQ) = CYP3A4(BQ) (Homo sapiens (Human), UniProt P08684); assay: CYP enzyme inhibition, fluorescent substrate BQ
Summary of the method: as §2

B-Raf [2] = assay: B-Raf kinase activity biochemical assay (AlphaScreen, biotin-MEK1 phosphorylation); details: for Biochemical activity ratio B/V600E: ratio of IC50 B-Raf / B-Raf V600E; for Biochemical activity ratio B/C: ratio of IC50 B-Raf / c-Raf-1
Summary of the method: as §1

B-Raf [3] = target: B-Raf (Homo sapiens (Human), UniProt P15056); assay: as above; details: B-Raf
Summary of the method: as §1

CYP2D6 = CYP2D6 (Homo sapiens (Human), UniProt P10635); assay: CYP enzyme inhibition, fluorescent substrate (AMMC); type: in vitro ADME; details: read-out: Cyp IC50 2D6
Summary of the method: as §3

CYP2C9 = CYP2C9 (Homo sapiens (Human), UniProt P11712); assay: CYP enzyme inhibition, fluorescent substrate (MFC)
Summary of the method: as §2

CYP3A4(BFC) = CYP3A4(BFC) (Homo sapiens (Human), UniProt P08684); assay: CYP enzyme inhibition, fluorescent substrate BFC
Summary of the method: as §2

[4] = read-out: Cyp IC50 2C19, CYP2C19, substrate CEC
[5] = read-out: Cyp IC50 3A4(BQ), CYP3A4, substrate BQ
[6] = read-out: Cyp IC50 2C9, CYP2C9, substrate MFC
[7] = read-out: Cyp IC50 3A4(BFC), CYP3A4, substrate BFC

Sequence of CYP3A4(BFC) (P08684 whole entry): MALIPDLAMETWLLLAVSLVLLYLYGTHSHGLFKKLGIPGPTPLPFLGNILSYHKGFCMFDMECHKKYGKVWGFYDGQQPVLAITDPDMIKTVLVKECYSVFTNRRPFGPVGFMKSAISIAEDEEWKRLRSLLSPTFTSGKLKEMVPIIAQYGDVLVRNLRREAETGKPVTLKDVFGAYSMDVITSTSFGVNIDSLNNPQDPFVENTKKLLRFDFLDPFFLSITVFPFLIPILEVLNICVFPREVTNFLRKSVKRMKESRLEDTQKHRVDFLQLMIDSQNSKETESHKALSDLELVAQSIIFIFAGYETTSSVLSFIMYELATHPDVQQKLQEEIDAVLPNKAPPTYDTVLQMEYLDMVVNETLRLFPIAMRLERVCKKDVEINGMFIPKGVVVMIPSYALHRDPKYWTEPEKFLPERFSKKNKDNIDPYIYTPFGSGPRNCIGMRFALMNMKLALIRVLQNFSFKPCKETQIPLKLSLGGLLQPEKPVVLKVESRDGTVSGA
Sequence of CYP3A4(BQ) (P08684 whole entry): as above
Sequence of CYP2D6 (P10635 whole entry): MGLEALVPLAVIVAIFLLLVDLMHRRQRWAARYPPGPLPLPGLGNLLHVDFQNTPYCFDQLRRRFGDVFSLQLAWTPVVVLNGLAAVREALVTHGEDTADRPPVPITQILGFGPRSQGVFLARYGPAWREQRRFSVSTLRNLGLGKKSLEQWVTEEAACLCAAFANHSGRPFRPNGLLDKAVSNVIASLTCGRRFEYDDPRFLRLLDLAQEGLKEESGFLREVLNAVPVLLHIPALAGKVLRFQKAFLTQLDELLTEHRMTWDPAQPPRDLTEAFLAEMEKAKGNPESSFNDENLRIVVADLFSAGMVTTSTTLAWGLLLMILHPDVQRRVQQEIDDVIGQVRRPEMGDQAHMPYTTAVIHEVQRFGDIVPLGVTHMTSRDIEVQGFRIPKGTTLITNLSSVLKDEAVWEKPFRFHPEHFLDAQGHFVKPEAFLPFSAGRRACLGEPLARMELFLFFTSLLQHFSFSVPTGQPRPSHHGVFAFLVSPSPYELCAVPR
Sequence of c-Raf-1 (P04049 whole entry, looked up): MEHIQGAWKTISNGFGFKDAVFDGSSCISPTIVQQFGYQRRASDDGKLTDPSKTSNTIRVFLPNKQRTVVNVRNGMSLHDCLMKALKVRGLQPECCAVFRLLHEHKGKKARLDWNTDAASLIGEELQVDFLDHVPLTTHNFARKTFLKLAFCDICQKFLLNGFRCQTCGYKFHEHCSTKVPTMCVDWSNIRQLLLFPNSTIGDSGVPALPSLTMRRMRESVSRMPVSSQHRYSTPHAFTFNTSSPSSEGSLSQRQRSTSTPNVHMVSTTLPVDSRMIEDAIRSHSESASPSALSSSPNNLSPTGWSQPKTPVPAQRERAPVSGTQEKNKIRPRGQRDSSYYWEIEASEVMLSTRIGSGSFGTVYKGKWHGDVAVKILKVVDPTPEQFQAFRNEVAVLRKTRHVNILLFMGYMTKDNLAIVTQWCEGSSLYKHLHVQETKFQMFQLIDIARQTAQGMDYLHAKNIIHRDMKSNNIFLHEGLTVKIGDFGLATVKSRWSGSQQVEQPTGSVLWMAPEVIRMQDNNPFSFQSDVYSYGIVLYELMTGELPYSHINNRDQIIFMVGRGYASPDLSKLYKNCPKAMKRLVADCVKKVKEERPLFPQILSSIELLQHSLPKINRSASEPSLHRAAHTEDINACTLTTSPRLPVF
Sequence of CYP1A2 (P05177 whole entry): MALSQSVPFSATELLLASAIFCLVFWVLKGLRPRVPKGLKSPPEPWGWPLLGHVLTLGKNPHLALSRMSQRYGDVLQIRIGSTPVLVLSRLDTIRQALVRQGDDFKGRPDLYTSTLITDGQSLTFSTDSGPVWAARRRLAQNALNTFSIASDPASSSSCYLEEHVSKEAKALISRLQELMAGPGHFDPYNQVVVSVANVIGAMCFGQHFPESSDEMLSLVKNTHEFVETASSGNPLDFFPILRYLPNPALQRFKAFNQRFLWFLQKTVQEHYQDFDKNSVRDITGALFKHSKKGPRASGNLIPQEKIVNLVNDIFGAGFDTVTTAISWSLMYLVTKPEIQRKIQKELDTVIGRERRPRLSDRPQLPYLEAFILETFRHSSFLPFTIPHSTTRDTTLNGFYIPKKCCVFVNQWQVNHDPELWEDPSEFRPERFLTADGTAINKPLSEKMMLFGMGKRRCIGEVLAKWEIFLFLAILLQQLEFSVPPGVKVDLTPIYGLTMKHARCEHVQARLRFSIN
Sequence of CYP2C9 (P11712 whole entry): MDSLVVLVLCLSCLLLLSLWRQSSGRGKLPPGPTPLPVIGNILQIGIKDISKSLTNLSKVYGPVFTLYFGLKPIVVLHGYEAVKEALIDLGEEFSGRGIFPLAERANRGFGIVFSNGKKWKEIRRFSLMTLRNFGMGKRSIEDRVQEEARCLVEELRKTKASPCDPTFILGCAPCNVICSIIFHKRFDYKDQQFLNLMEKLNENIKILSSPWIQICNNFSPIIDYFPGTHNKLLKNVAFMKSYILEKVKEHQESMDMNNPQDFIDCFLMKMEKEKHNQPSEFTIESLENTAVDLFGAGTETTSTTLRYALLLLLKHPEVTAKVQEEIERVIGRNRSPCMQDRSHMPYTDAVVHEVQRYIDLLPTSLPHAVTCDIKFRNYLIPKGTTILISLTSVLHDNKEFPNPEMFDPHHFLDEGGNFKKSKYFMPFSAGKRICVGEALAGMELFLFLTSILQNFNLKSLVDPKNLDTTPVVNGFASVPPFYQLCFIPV
Sequence of CYP2C19 (P33261 whole entry): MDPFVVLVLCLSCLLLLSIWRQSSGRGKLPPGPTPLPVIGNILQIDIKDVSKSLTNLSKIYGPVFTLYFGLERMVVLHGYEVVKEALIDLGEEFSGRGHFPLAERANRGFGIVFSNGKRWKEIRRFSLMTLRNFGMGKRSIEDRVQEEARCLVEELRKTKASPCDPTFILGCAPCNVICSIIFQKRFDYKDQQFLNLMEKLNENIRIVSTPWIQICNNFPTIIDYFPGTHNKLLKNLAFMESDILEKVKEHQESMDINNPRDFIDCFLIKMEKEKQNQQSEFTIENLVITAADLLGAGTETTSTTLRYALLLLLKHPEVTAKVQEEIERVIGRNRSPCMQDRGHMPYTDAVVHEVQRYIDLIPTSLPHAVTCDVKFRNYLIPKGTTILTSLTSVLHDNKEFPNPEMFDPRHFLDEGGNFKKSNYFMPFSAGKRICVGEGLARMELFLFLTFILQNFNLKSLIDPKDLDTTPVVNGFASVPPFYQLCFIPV
Sequence of B-Raf (Homo sapiens (Human), UniProt P15056) (P15056 whole entry): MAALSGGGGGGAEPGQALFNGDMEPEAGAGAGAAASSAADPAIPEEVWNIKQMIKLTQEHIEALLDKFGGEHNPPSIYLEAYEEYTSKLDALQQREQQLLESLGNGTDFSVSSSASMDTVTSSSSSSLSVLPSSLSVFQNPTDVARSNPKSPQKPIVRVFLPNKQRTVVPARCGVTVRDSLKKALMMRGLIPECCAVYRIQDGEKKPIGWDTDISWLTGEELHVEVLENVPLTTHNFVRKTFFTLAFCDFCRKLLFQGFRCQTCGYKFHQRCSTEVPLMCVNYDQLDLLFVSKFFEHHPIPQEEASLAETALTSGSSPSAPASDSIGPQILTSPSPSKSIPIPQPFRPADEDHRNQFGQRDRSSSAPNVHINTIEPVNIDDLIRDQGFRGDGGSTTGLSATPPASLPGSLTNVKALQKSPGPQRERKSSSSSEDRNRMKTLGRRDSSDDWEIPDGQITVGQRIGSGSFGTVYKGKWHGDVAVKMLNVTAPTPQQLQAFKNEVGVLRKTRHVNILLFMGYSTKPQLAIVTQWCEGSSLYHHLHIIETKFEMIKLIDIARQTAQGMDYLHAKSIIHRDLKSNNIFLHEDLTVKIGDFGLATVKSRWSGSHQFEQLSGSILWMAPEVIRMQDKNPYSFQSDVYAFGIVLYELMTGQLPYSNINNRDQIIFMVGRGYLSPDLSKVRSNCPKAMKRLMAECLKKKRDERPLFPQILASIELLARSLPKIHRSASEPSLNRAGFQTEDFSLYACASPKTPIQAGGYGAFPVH
Sequence of B-Raf V600E (P15056 whole entry V600E): as the sequence (P15056 whole entry) above, with V600E counted along it

Compound | IC50 (c-Raf-1) [µM] | turbidity threshold (L, M, H) 1.4 [1] | turbidity threshold (L, M, H) 4.5 [1] | turbidity threshold (L, M, H) 6.8 [1] | turbidity threshold (L, M, H) 7.4 [1] | IC50 (CYP2C19; [4]) [µM] | IC50 (B-Raf V600E) [µM] | Biochemical activity ratio V600E/C (B-Raf V600E) | IC50 (CYP3A4(BQ); [5]) [µM] | Biochemical activity ratio B/V600E (B-Raf [2]) | Biochemical activity ratio B/C (B-Raf [2]) | IC50 (B-Raf [3]) [µM] | IC50 (CYP2D6) [µM] | IC50 (CYP2C9; [6]) [µM] | IC50 (CYP3A4(BFC); [7]) [µM] | IC50 (CYP3A4(BFC)) [µM] | IC50 (CYP1A2; human, 15 min) [µM] | also measured
O=C(c1c(F)ccc(NS(=O)(=O)c2ccc(C(F)(F)F)cc2)c1F)c1c[nH]c2ncnc(O)c12 [P-1012, N-[2,4-Difluoro-3-(4-hydroxy-7H-pyrrolo[2,3-d]pyrimidine-5-carbonyl)-phenyl]-4-trifluoromethyl-benzenesulfonamide] | < 0.1 | M (moderate solubility if the threshold concentration is 31.3 μM to 250 μM) | M (moderate solubility if the threshold concentration is 31.3 μM to 250 μM) | H (high solubility if the threshold concentration is >250 μm) | H (high solubility if the threshold concentration is >250 μm) | > 10 | > 0.1 | >10 | > 10 | 0.1-10 | 0.1-10 | > 0.1 | > 10 | > 10 | > 10 |  |  | IC50 (CYP1A2; read-out: Cyp IC50 1A2, CYP1A2, substrate CEC): > 10 µM
Cc1c(Cl)cnc2[nH]cc(C(=O)c3c(F)ccc(NS(=O)(=O)c4ccc(C(F)(F)F)cc4)c3F)c12 [P-2011, N-[3-(5-Chloro-4-methyl-1H-pyrrolo[2,3-b]pyridine-3-carbonyl)-2,4-difluoro-phenyl]-4-trifluoromethyl-benzene sulfonamide] | < 0.1 | L (low solubility if the threshold concentration is <31.3 μM) | L (low solubility if the threshold concentration is <31.3 μM) | L (low solubility if the threshold concentration is <31.3 μM) | L (low solubility if the threshold concentration is <31.3 μM) |  | > 0.1 | >10 |  | 0.1-10 | 0.1-10 | < 0.1 | 5 to 10 |  |  | > 10 |  | IC50 (CYP2C19): < 5 µM; IC50 (CYP1A2): > 10 µM; IC50 (CYP3A4(BQ)): > 10 µM; IC50 (CYP2C9): > 10 µM
COCCNc1ncnc2[nH]cc(C(=O)c3c(F)ccc(NS(=O)(=O)c4ccc(C(F)(F)F)cc4)c3F)c12 [P-1058, N-{2,4-Difluoro-3-[4-(2-methoxy-ethylamino)-7H-pyrrolo[2,3-d]pyrimidine-5-carbonyl]-phenyl}-4-trifluoromethyl-benzenesulfonamide] | < 0.1 | M (moderate solubility if the threshold concentration is 31.3 μM to 250 μM) | L (low solubility if the threshold concentration is <31.3 μM) | L (low solubility if the threshold concentration is <31.3 μM) | L (low solubility if the threshold concentration is <31.3 μM) | > 10 | > 0.1 | >10 | > 10 | 0.1-10 | 0.1-10 | < 0.1 | > 10 | > 10 |  | 5 to 10 | > 10 | 
CCCc1ccc(S(=O)(=O)Nc2ccc(F)c(C(=O)c3c[nH]c4ncnc(NC5CCOCC5)c34)c2F)cc1 [P-1046, N-{2,4-Difluoro-3-[4-(tetrahydro-pyran-4-ylamino)-7H-pyrrolo[2,3-d]pyrimidine-5-carbonyl]-phenyl}-4-propyl-benzenesulfonamide] | < 0.1 | M (moderate solubility if the threshold concentration is 31.3 μM to 250 μM) | L (low solubility if the threshold concentration is <31.3 μM) | L (low solubility if the threshold concentration is <31.3 μM) | L (low solubility if the threshold concentration is <31.3 μM) | > 10 | > 0.1 | >10 | > 10 | 0.1-10 | >10 | < 0.1 | > 10 | > 10 | > 10 |  | > 10 | 

— patent publication US9617267B2, “Compounds and methods for kinase modulation, and indications therefor” (Plexxikon Inc., priority 2009, dated 2017)
